Measured values taken from publication PMC6527222 (PLoS ONE, 2019).

How the values were obtained:
β2-AR [1] = tested on: β2-AR; parameters: method as in as printed in each cell (43-46, 48-54, 56-58); conditions: as described in the references; ref (43-46, 48-54, 56-58); cited from earlier work
JB6 P+ cells [2] = experiment: Soft agar assay with competitive adrenergic receptor antagonists; format: cell-based; conditions: Mus musculus, alone, CGP 12177 experiment (S2 Fig)
Method: Ten ng/mL EGF was used to promote the anchorage-independent growth of JB6 cells. […] Plates were incubated at 37°C, 5% CO2 for 14 days. Colonies with greater than ten cells were counted manually under a microscope. Antagonists identified in our assays as ineffective at blocking EGF-mediated transformation of JB6 P+ cells yet displaying no or little toxicity were used as competitive antagonists towards carvedilol-mediated prevention of EGF-induced transformation of JB6 P+ cells.

β2-AR [3] = conditions: given as negative log value; cited from earlier work
JB6 P+ cells [4] = experiment: SRB cytotoxicity assay; format: cell-based, mouse; conditions: 72 hr; NT = no toxicity at any concentration tested
Method: 96-well plates were seeded with 3x10^3 JB6 P+ cells per well and allowed to attach overnight. […] Cell viability was determined using Sulforhodamine B (SRB) assay from Sigma-Aldrich according to the manufacturer’s protocol. Cellular protein content was measured using a Bio-Tek μQuant plate reader with KCJunior software.
Concentration-response curves were normalized so that the EGF positive control on each 96-well plate was set to 100% and the control wells on each plate were set to 0%. Toxicity assays (SRB and MTS) were normalized so that the control on each plate represented 100% viability. Normalization allowed for comparison of data over a range of JB6 P+ cell cultures, passages, and experimental time for the shRNA studies, as well as control for variation in the EGF response, and importantly allowed for a direct comparison to all concentration-response experiments including the toxicity assays. […] All group sizes were determined via previous studies to provide statistically meaningful data. In the soft agar assays, key results were repeated with different JB6 P+ cells to confirm the results. Similarly, the shRNA studies were conducted with three independent concentration-response curves with different JB6 P+ cell stocks. […] For two sample comparisons a t-test was utilized, and when comparing multiple samples a One-, Two-, or Three-Factor ANOVA followed by Tukey-Kramer post hoc test was utilized depending on the data. For all tests, statistical difference was donated when p < 0.05.
The IΔ2*PSD is expressed in x-axis units (log [M]) as is an IC50 and it represents the first concentration where it is expected to observe a statistical decrease in the measured signal.
Using the formula provided by GraphPad Prism or a straight line for the point-to-point graphs, the X-axis value for point Y was determined. The error is ascribed to this measurement via adding and subtracting the pooled standard deviation (PSD) to/from point Y generating point Y ± PSD. The two new points were then transformed to the X-axis units as was done for point Y creating an asymmetric error in sigmoidal plots. When the error was asymmetric, the larger error value was chosen to err on the conservative side. See S1 Fig for a pictoral explination of the method. The data is presented as IΔ2*PSD ± error.

JB6 P+ cells [5] = experiment: Anchorage-independent growth assay in soft agar (EGF-induced JB6 P+ colony formation); format: cell-based, mouse
Method: Ten ng/mL EGF was used to promote the anchorage-independent growth of JB6 cells. […] Plates were incubated at 37°C, 5% CO2 for 14 days. Colonies with greater than ten cells were counted manually under a microscope. […] Normalization allowed for comparison of data over a range of JB6 P+ cell cultures, passages, and experimental time for the shRNA studies, as well as control for variation in the EGF response, and importantly allowed for a direct comparison to all concentration-response experiments including the toxicity assays. […] All group sizes were determined via previous studies to provide statistically meaningful data. In the soft agar assays, key results were repeated with different JB6 P+ cells to confirm the results. Similarly, the shRNA studies were conducted with three independent concentration-response curves with different JB6 P+ cell stocks. […] For two sample comparisons a t-test was utilized, and when comparing multiple samples a One-, Two-, or Three-Factor ANOVA followed by Tukey-Kramer post hoc test was utilized depending on the data. For all tests, statistical difference was donated when p < 0.05. […] The I[…]*PSD is expressed in x-axis units (log [M]) as is an IC50 and it represents the first concentration where it is expected to observe a statistical decrease in the measured signal. […] Using the formula provided by GraphPad Prism or a straight line for the point-to-point graphs, the X-axis value for point Y was determined. The error is ascribed to this measurement via adding and subtracting the pooled standard deviation (PSD) to/from point Y generating point Y ± PSD. The two new points were then transformed to the X-axis units as was done for point Y creating an asymmetric error in sigmoidal plots. When the error was asymmetric, the larger error value was chosen to err on the conservative side. See S1 Fig for a pictoral explination of the method. The data is presented as I[…]*PSD ± error.

**Q.** For `OC(CNCC(O)C1CCc2cc(F)ccc2O1)C1CCc2cc(F)ccc2O1` (stereo not drawn) [Nebivolol], which “Pharmacological property at β2-AR” value (β2-AR [1]) is on record?
**A.** Its value is “Biased agonist/ activates ERK [46]”.

**Q.** What about the IC50 (JB6 P+ cells [2]) of the same compound?
**A.** The IC50 was 347 nM.

**Q.** What about the “Log Kd at β2-AR” value (β2-AR [3]) of the same compound?
**A.** Its value is -7.91 ± 0.07 [47].

**Q.** What about the “SRB Assay Log IΔ2*PSD” value (JB6 P+ cells [4]) of the same compound?
**A.** Its value is -4.65 ± 0.19 log [M].

**Q.** What about the IC50 (JB6 P+ cells [5]; 10 ng/mL EGF, soft agar, read-out: IC50, inhibition of EGF-mediated transformation) of the same compound?
**A.** Its IC50 is at most 1000 nM.

**Q.** And the IC50 (JB6 P+ cells [5]; Mus musculus, 10 ng/mL EGF, soft agar, read-out: IC50, inhibition of EGF-mediated transformation)?
**A.** The IC50 was 1090 nM.

**Q.** And the IC50 (JB6 P+ cells [5]; Mus musculus, 336 h, 10 ng/mL EGF, 14 days, negative log value, read-out: Soft Agar Assay Log IC50 (converted))?
**A.** The IC50 was 1100 nM.

**Q.** And the minimal effective concentration (JB6 P+ cells [5]; Mus musculus, 336 h, 10 ng/mL EGF, 14 days, first concentration with expected statistical decrease, read-out: Soft Agar Assay Log IΔ2*PSD (converted))?
**A.** Its minimal effective concentration is 0.479 µM.

**Q.** What about the Emax (JB6 P+ cells [5]; Mus musculus, efficacy of inhibition of colony formation, reported if non-toxic) of the same compound?
**A.** The Emax was 96.5 ± 7.24%.
